ChEMBL document CHEMBL1201862, “PubChem BioAssay data set” (2004)
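A five-concentration, 48-hour dose response in 96-well plates underlies each endpoint, interpolated linearly between surrounding concentrations. At the GI50, growth is halved.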 The source made the active and inactive calls. Rule as the data show it: active = GI50 up to about 1.1 µM and inactive = higher.

Assays:
Assay in all cases: DTP human tumour cell line panel, 48 h
DMS-273 = system: DMS-273
HL-60 = system: HL-60
IGROV-1 = system: IGROV-1
K562 = system: K562
KM12 = system: KM12
NCI-H23 = system: NCI-H23
NCI-H460 = system: NCI-H460
OVCAR-4 = system: OVCAR-4
OVCAR-5 = system: OVCAR-5
OVCAR-8 = system: OVCAR-8
RPMI-8226 = system: RPMI-8226
RXF 393 = system: RXF 393
SK-MEL-2 = system: SK-MEL-2
SN12C = system: SN12C
SNB-19 = system: SNB-19
U-251 = system: U-251
HOP-92 = system: HOP-92

Measured: GI50

Cc1cc(Br)ccc1NC1=CC(=O)C(=O)c2ccccc21
inactive: DMS-273 31.4 µM | HL-60 13.6 µM | IGROV-1 77.6 µM | K562 51.4 µM | KM12 38.5 µM | NCI-H23 10.9 µM | NCI-H460 27.9 µM | OVCAR-4 9.08 µM | OVCAR-5 70.8 µM | OVCAR-8 42.2 µM | RPMI-8226 36.9 µM | RXF 393 30.5 µM | SK-MEL-2 23.6 µM | SN12C 60.1 µM | SNB-19 24.2 µM | U-251 26.4 µM

COC(=O)C(c1ccc(OC)cc1)N1C(=O)[C@@H](NC(=O)c2ccccc2)[C@H]1[C@@H](C)O (some centres undefined)
inactive: DMS-273 > 100 µM | HL-60 > 100 µM | HOP-92 > 100 µM | IGROV-1 > 100 µM | K562 > 100 µM | KM12 > 100 µM | NCI-H23 > 100 µM | NCI-H460 > 100 µM | OVCAR-4 > 100 µM | OVCAR-8 > 100 µM | RXF 393 > 100 µM | SK-MEL-2 > 100 µM | SN12C > 100 µM | SNB-19 > 100 µM | U-251 > 100 µM

CN(C)CCCN1N=Nc2cccc3cccc1c23
inactive: DMS-273 19.4 µM | HL-60 30.3 µM | HOP-92 90.6 µM | IGROV-1 > 100 µM | K562 26.7 µM | KM12 > 79.3 µM | NCI-H23 > 100 µM | NCI-H460 33.1 µM | OVCAR-4 20.3 µM | OVCAR-5 > 91.4 µM | OVCAR-8 > 77.3 µM | RPMI-8226 > 51.1 µM | SK-MEL-2 > 100 µM | SN12C 63.8 µM | SNB-19 > 100 µM | U-251 > 74.3 µM

COc1cccc(C2c3cc4c(cc3OC(O)(CO)C2C(=O)O)OCO4)c1.COc1cccc(C2c3cc4c(cc3OC3(O)COC(=O)C23)OCO4)c1 (centres undefined)
inactive: DMS-273 65.3 µM | HL-60 33.7 µM | HOP-92 30.6 µM | IGROV-1 62.7 µM | K562 37.7 µM | KM12 35.7 µM | NCI-H23 43.5 µM | NCI-H460 21.2 µM | OVCAR-4 37 µM | OVCAR-5 > 100 µM | OVCAR-8 46 µM | RPMI-8226 53 µM | RXF 393 33.5 µM | SK-MEL-2 > 100 µM | SN12C 55.3 µM | U-251 22.2 µM

O=[N+]([O-])c1ccc(-c2ccc(/C=N/n3c(S)nnc3-c3ccc(Cl)cc3)o2)cc1
inactive: DMS-273 22.9 µM | HL-60 51.2 µM | HOP-92 > 42 µM | IGROV-1 > 81.3 µM | K562 19.2 µM | KM12 22.8 µM | NCI-H23 27.2 µM | NCI-H460 21.5 µM | OVCAR-4 > 38.1 µM | OVCAR-5 > 100 µM | OVCAR-8 > 50 µM | RPMI-8226 16.6 µM | SK-MEL-2 34.2 µM | SN12C > 49.2 µM | SNB-19 23 µM | U-251 21.6 µM

CC1(C)CC[C@]2(C(=O)O)CCC3(C)C(=CCC4[C@@]5(C)CC[C@H](OC6OCC(O)C(O)C6OC6OC(CO)C(O)C(O)C6O)C(C)(C)C5CC[C@]43C)C2C1 (some centres undefined)
inactive: DMS-273 2.06 µM | HOP-92 1.84 µM | IGROV-1 2.67 µM | KM12 2.24 µM | NCI-H23 2.11 µM | NCI-H460 2.1 µM | OVCAR-4 1.57 µM | OVCAR-5 2.41 µM | OVCAR-8 1.95 µM | RPMI-8226 2.35 µM | RXF 393 1.96 µM | SN12C 1.89 µM | SNB-19 1.93 µM | U-251 1.93 µM

Cc1cc(N(CCC#N)CCC#N)ccc1/C=C/C(=O)Nc1cccc(Cl)c1
inactive: DMS-273 > 100 µM | HL-60 51.3 µM | HOP-92 43.4 µM | IGROV-1 > 100 µM | K562 32.3 µM | KM12 > 100 µM | NCI-H23 > 100 µM | NCI-H460 > 100 µM | OVCAR-4 58.6 µM | OVCAR-5 > 100 µM | OVCAR-8 > 100 µM | RPMI-8226 > 100 µM | SK-MEL-2 > 100 µM | SN12C > 100 µM | SNB-19 > 100 µM | U-251 > 100 µM

N=C(N)NS(=O)(=O)c1ccc(NC(=O)c2cccc3c(Nc4ccc(S(=O)(=O)N=C(N)N)cc4)c4ccc(Cl)cc4nc23)cc1
inactive: DMS-273 > 100 µM | HOP-92 32.7 µM | IGROV-1 74.8 µM | K562 41.3 µM | KM12 > 100 µM | NCI-H23 > 100 µM | NCI-H460 76.2 µM | OVCAR-4 80 µM | OVCAR-5 > 100 µM | OVCAR-8 61.2 µM | RPMI-8226 43.9 µM | RXF 393 > 100 µM | SK-MEL-2 > 100 µM | SN12C 75.5 µM | SNB-19 48.4 µM | U-251 37.2 µM

Cc1ccc(Nc2nc(-c3ccc(-c4ccc([N+](=O)[O-])cc4)o3)cs2)cc1
inactive: DMS-273 42.6 µM | HL-60 58.7 µM | HOP-92 37.2 µM | IGROV-1 22.7 µM | K562 14.2 µM | KM12 52.8 µM | NCI-H23 25.6 µM | NCI-H460 44 µM | OVCAR-4 63.1 µM | OVCAR-5 59 µM | OVCAR-8 40.6 µM | RPMI-8226 12.6 µM | SK-MEL-2 > 100 µM | SN12C 73.6 µM | SNB-19 > 100 µM | U-251 35 µM

CC(=O)N1CCc2[nH]c3ccccc3c2CC1
inactive: DMS-273 > 100 µM | HL-60 > 100 µM | HOP-92 31.5 µM | IGROV-1 > 100 µM | K562 > 100 µM | KM12 > 100 µM | NCI-H23 > 100 µM | NCI-H460 > 100 µM | OVCAR-4 > 100 µM | OVCAR-5 > 100 µM | OVCAR-8 > 100 µM | RPMI-8226 > 100 µM | SK-MEL-2 > 100 µM | U-251 > 100 µM

O=[N+]([O-])c1cccc(C2=NN(c3ccccc3)C3c4ccccc4OCC23)c1 (centres undefined)
inactive: DMS-273 > 100 µM | HL-60 66.1 µM | HOP-92 52.8 µM | IGROV-1 > 100 µM | K562 75.3 µM | KM12 > 100 µM | NCI-H23 > 100 µM | NCI-H460 > 100 µM | OVCAR-5 > 100 µM | OVCAR-8 > 100 µM | RPMI-8226 > 100 µM | RXF 393 > 100 µM | SK-MEL-2 > 100 µM | SNB-19 > 100 µM | U-251 > 100 µM

C/C(CC(=O)Nc1cc(C)ccc1C)=N/N=C(N)N
inactive: DMS-273 > 100 µM | HL-60 > 100 µM | HOP-92 > 100 µM | IGROV-1 > 100 µM | K562 > 100 µM | KM12 > 100 µM | NCI-H23 > 100 µM | NCI-H460 > 100 µM | OVCAR-5 > 100 µM | OVCAR-8 > 100 µM | RPMI-8226 > 100 µM | RXF 393 > 100 µM | SK-MEL-2 > 100 µM | U-251 > 100 µM
